Results taken from patent US12590067B2, “Herbicidal cyclohexanedione derivatives” (SYNGENTA CROP PROTECTION AG, priority 2019, dated 2026).

Columns and labels:
Assay in all cases: Glasshouse herbicidal test, pre- and post-emergence, percentage damage to the plant
Assay type in all cases: in vivo
Avena fatua (AVEFA) = conditions: 250 g/h, evaluated after 13 days; for AVEFA POST percentage damage caused to the plant (five-point scale): post-emergence; for AVEFA PRE percentage damage caused to the plant (five-point scale): pre-emergence
How it was run: (§1)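 Percentage plant damage, scored 13 days after treatment as 5=80-100%, 4=60-79%, 3=40-59%, 2=20-39%, 1=0-19%. Spray of 250 g/h in acetone/water 50:50 plus 0.5% Tween 20 went on one day (pre-emergence) or eight days (post-emergence) after sowing.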

[1] = tested on: Echinochloa crus-galli (ECHCG); conditions: 250 g/h, evaluated after 13 days; for ECHCG POST percentage damage caused to the plant (five-point scale): post-emergence; for ECHCG PRE percentage damage caused to the plant (five-point scale): pre-emergence
How it was run: as §1

[2] = tested on: Alopecurus myosuroides (ALOMY); conditions: 250 g/h, evaluated after 13 days; for ALOMY POST percentage damage caused to the plant (five-point scale): post-emergence; for ALOMY PRE percentage damage caused to the plant (five-point scale): pre-emergence
How it was run: as §1

Lolium perenne (LOLPE) = conditions: 250 g/h, evaluated after 13 days; for LOLPE POST percentage damage caused to the plant (five-point scale): post-emergence; for LOLPE PRE percentage damage caused to the plant (five-point scale): pre-emergence
How it was run: as §1

Setaria faberi (SETFA) = conditions: 250 g/h, evaluated after 13 days; for SETFA POST percentage damage caused to the plant (five-point scale): post-emergence; for SETFA PRE percentage damage caused to the plant (five-point scale): pre-emergence
How it was run: as §1

CC#Cc1cc(Cl)c(C2C(=O)CC3(CCN(C(=O)COC)CC3)CC2=O)c(OC)c1 [Compound A5]
5 (5=80-100%): AVEFA POST percentage damage caused to the plant (five-point scale) (Avena fatua (AVEFA)) | AVEFA PRE percentage damage caused to the plant (five-point scale) (Avena fatua (AVEFA)) | ECHCG POST percentage damage caused to the plant (five-point scale) [1] | ECHCG PRE percentage damage caused to the plant (five-point scale) [1] | ALOMY POST percentage damage caused to the plant (five-point scale) [2] | ALOMY PRE percentage damage caused to the plant (five-point scale) [2] | LOLPE POST percentage damage caused to the plant (five-point scale) (Lolium perenne (LOLPE)) | LOLPE PRE percentage damage caused to the plant (five-point scale) (Lolium perenne (LOLPE)) | SETFA POST percentage damage caused to the plant (five-point scale) (Setaria faberi (SETFA)) | SETFA PRE percentage damage caused to the plant (five-point scale) (Setaria faberi (SETFA))

CC#Cc1cc(Cl)c(C2C(=O)CC3(CCN(C(C)=O)CC3)CC2=O)c(Cl)c1 [Compound A14]
5 (5=80-100%): AVEFA POST percentage damage caused to the plant (five-point scale) (Avena fatua (AVEFA)) | AVEFA PRE percentage damage caused to the plant (five-point scale) (Avena fatua (AVEFA)) | ECHCG POST percentage damage caused to the plant (five-point scale) [1] | ECHCG PRE percentage damage caused to the plant (five-point scale) [1] | ALOMY POST percentage damage caused to the plant (five-point scale) [2] | ALOMY PRE percentage damage caused to the plant (five-point scale) [2] | LOLPE POST percentage damage caused to the plant (five-point scale) (Lolium perenne (LOLPE)) | LOLPE PRE percentage damage caused to the plant (five-point scale) (Lolium perenne (LOLPE)) | SETFA POST percentage damage caused to the plant (five-point scale) (Setaria faberi (SETFA)) | SETFA PRE percentage damage caused to the plant (five-point scale) (Setaria faberi (SETFA))

CC#Cc1cc(Cl)c(C2C(=O)CC3(CCN(C(=O)COC(F)F)CC3)CC2=O)c(Cl)c1 [Compound A18]
5 (5=80-100%): AVEFA POST percentage damage caused to the plant (five-point scale) (Avena fatua (AVEFA)) | AVEFA PRE percentage damage caused to the plant (five-point scale) (Avena fatua (AVEFA)) | ECHCG POST percentage damage caused to the plant (five-point scale) [1] | ECHCG PRE percentage damage caused to the plant (five-point scale) [1] | ALOMY POST percentage damage caused to the plant (five-point scale) [2] | ALOMY PRE percentage damage caused to the plant (five-point scale) [2] | LOLPE POST percentage damage caused to the plant (five-point scale) (Lolium perenne (LOLPE)) | LOLPE PRE percentage damage caused to the plant (five-point scale) (Lolium perenne (LOLPE)) | SETFA POST percentage damage caused to the plant (five-point scale) (Setaria faberi (SETFA)) | SETFA PRE percentage damage caused to the plant (five-point scale) (Setaria faberi (SETFA))
